Results published in patent publication US20100233681A1, “METHOD FOR CELL BASED ASSAYS” (GE Healthcare UK Limited, priority 2006, published 2010).

Tested on: U2OS osteosarcoma cells
Conditions: 250 ml of a 40 mM solution of histamine added after 20 seconds; control cells steady state 4500000 fluorescence units; 37° C.; FluoroMax-3 spectrofluorimeter
Experimental: i) U2OS osteosarcoma cells were grown on collagen coated CYTODEX™ 3 microcarriers (GE Healthcare) according to the Manufacturer's instructions in DMEM media (Invitrogen) supplemented with 10% (v/v) fetal bovine serum (Sigma). Once the culture had attained the required volume and cell density the cells on beads were loaded with 1 μM Fluo-4 (Invitrogen). Microcarriers were allowed to settle, the growth media removed and replaced with calcium flux buffer (145 mM sodium chloride, 5 mM potassium chloride, 1 mM magnesium sulphate, 10 mM HEPES, 10 mM D-glucose, 1 mM calcium chloride containing 1% BSA, 1 μM Fluo-4 (Invitrogen) and the cells incubated for 40 minutes at 37° C. Beads were allowed to settle, the calcium flux buffer removed and replaced with DMEM media supplemented with 10% (v/v) fetal bovine serum and glycerol (10% v/v final concentration) was added as a cryo-preservative. Fluo-4 loaded cells on beads were divided into aliquots of 8×10^5 cells and the 1 ml aliquots frozen to −140° C. at a freezing rate of 1° C./minute. ii) To set up the cell assay, vials of cryo-preserved cells were rapidly thawed in a water bath at 37° C. and cells on bead suspensions placed in 1.5 ml spectrofluorimeter cuvettes and equilibrated at 37° C. for 30 minutes. Fluorescence measurements were acquired over time using a FluoroMax-3 spectrofluorimeter using excitation and emission settings for Fluo-4.

NCCc1c[nH]cn1 [histamine]
Fluo-4 fluorescence after addition of histamine (intracellular calcium release): 5170000 fluorescence units
